According to patent USRE39591E1, “6-O-substituted ketolides having antibacterial activity” (Abbott Laboratories, priority 1996, dated 2007):
In brackets after ≈: the same amount, converted by molar mass.

System: up to 32 different microorganisms
Test: in vitro antibacterial activity (MIC), agar dilution on Brain Heart Infusion (BHI) agar with Steers replicator
Format: cell-based
Settings: unit assumed
Method: Representative compounds of the present invention were assayed in vitro for antibacterial activity as follows: Twelve petri dishes containing successive aqueous dilutions of the test compound mixed with 10 mL of sterilized Brain Heart Infusion (BHI) agar (Difco 0148-01-5) were prepared. Each plate was inoculated with 1:100 (or 1:10 for slow-growing strains, such as Micrococcus and Streptococcus) dilutions of up to 32 different microorganisms, using a Steers replicator block. The inoculated plates were incubated at 35°-37° C. for 20 to 24 hours. In addition, a control plate, using BHI agar containing no test compound, was prepared and incubated at the beginning and end of each test.
An additional plate containing a compound having known susceptibility patterns for the organisms being tested and belonging to the same antibiotic class as the test compound was also prepared and incubated as a further control, as well as to provide test-to-test comparability. Erythromycin A was used for this purpose.
After incubation, each plate was visually inspected. The minimum inhibitory concentration (MIC) was defined as the lowest concentration of drug yielding no growth, a slight haze, or sparsely isolated colonies on the inoculum spot as compared to the growth control.

Structure (SMILES) | MIC (organism code AA) | MIC (organism code BB) | MIC (organism code CC) | MIC (organism code DD) | MIC (organism code EE) | MIC (organism code FF) | MIC (organism code GG) | MIC (organism code HH) | MIC (organism code II) | MIC (organism code JJ) | MIC (organism code KK) | MIC (organism code LL) | MIC (organism code MM) | MIC (organism code NN) | MIC (organism code OO) | MIC (organism code PP) | MIC (organism code QQ) | MIC (organism code RR) | MIC (organism code SS) | MIC (organism code TT) | further results
CC[C@H]1OC(=O)[C@H](C)C(=O)[C@H](C)[C@@H](O[C@@H]2O[C@H](C)C[C@H](N(C)C)[C@H]2O)[C@@](C)(OCC=NOCc2ccc3ccccc3c2)C[C@@H](C)C(=O)[C@H](C)[C@H]2NC(=O)O[C@@]21C [Example 236, Compound of Formula (IX): L is CO, T is NH, R is —CH2CH═NOCH2(2-naphthyl)] | 0.2 µg/mL | 0.2 µg/mL | > 100 µg/mL | 0.2 µg/mL | 0.2 µg/mL | 0.2 µg/mL | > 100 µg/mL | 0.2 µg/mL | 0.05 µg/mL | 0.05 µg/mL | 0.05 µg/mL | 0.01 µg/mL | 25 µg/mL | 0.2 µg/mL | 0.05 µg/mL | 0.1 µg/mL | 50 µg/mL | 0.39 µg/mL | > 100 µg/mL | > 100 µg/mL | MIC (organism code UU): 0.39 µg/mL; MIC (organism code VV): 0.2 µg/mL; MIC (organism code WW): 4 µg/mL; MIC (organism code XX): 0.03 µg/mL; MIC (organism code YY): 0.03 µg/mL; MIC (organism code ZZ): 32 µg/mL
CC[C@H]1OC(=O)[C@H](C)C(=O)[C@H](C)[C@@H](O[C@@H]2O[C@H](C)C[C@H](N(C)C)[C@H]2O)[C@@](C)(OCC=NOc2ccccc2)C[C@@H](C)C(=O)[C@H](C)[C@H]2NC(=O)O[C@@]21C [Example 228, Compound of Formula (IX): L is CO, T is NH, R is —CH2CH═NO(phenyl)] | 0.39 µg/mL | 0.78 µg/mL | > 100 µg/mL | 0.78 µg/mL | 0.78 µg/mL | 0.78 µg/mL | > 100 µg/mL | 0.78 µg/mL | 0.1 µg/mL | 0.02 µg/mL | ≤ 0.005 µg/mL | 0.01 µg/mL | 25 µg/mL | 0.78 µg/mL | 0.2 µg/mL | 0.39 µg/mL | > 100 µg/mL | 0.78 µg/mL | > 100 µg/mL | > 100 µg/mL | MIC (organism code UU): 3.1 µg/mL; MIC (organism code VV): 0.78 µg/mL; MIC (organism code WW): 8 µg/mL; MIC (organism code XX): 0.125 µg/mL; MIC (organism code YY): 0.125 µg/mL; MIC (organism code ZZ): > 128 µg/mL; MIC (organism code ZZA): 1 µg/mL
CCC1OC(=O)C(C)C(=O)C(C)C(OC2OC(C)CC(N(C)C)C2O)C(C)(OCC=Cc2cnc3ccc(NC(C)=O)cc3c2)CC(C)C(=O)C(C)C2NC(=O)OC12C (centres unmarked) [Example 203] | 0.2 µg/mL (≈ 0.243 µM) | 0.39 µg/mL (≈ 0.474 µM) | > 100 µg/mL | 0.2 µg/mL (≈ 0.243 µM) | 0.2 µg/mL (≈ 0.243 µM) | 0.39 µg/mL (≈ 0.474 µM) | > 100 µg/mL | 0.2 µg/mL (≈ 0.243 µM) | 0.2 µg/mL (≈ 0.243 µM) | ≤ 0.005 µg/mL | 0.01 µg/mL (≈ 0.0122 µM) | 0.01 µg/mL (≈ 0.0122 µM) | 1.56 µg/mL (≈ 1.9 µM) | 0.39 µg/mL (≈ 0.474 µM) | 0.02 µg/mL (≈ 0.0243 µM) | 0.39 µg/mL (≈ 0.474 µM) | 100 µg/mL (≈ 122 µM) | 0.39 µg/mL (≈ 0.474 µM) | 100 µg/mL (≈ 122 µM) | > 100 µg/mL | MIC (organism code UU): 6.2 µg/mL (≈ 7.53 µM); MIC (organism code VV): 0.39 µg/mL (≈ 0.474 µM); MIC (organism code WW): 4 µg/mL (≈ 4.86 µM); MIC (organism code XX): 0.03 µg/mL (≈ 0.0365 µM); MIC (organism code YY): 0.03 µg/mL (≈ 0.0365 µM); MIC (organism code ZZ): 16 µg/mL (≈ 19.4 µM); MIC (organism code ZZA): 2 µg/mL (≈ 2.43 µM)
